US11685732B2, “MYST family histone acetyltransferase inhibitors” (Epizyme, Inc., priority 2017, dated 2023)

Experiments:
KAT-7 = KAT-7 (Homo sapiens (Human), UniProt O95251); assay: KAT-7 biochemical inhibition assay (SAMDI mass spectrometry)
How it was run: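 KAT-7 (6 nM) was pre-incubated with serially diluted compound (2% DMSO) in Tris pH 8.0 with DTT. Reaction with 1 μM peptide and 2 μM acetyl-CoA ran 120 min at 25 °C and was stopped with 0.5% formic acid. Acetylation was read by SAMDI-TOF mass spectrometry to give IC50.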

KAT-6A = KAT-6A (Homo sapiens (Human), UniProt Q92794); assay: KAT-6A biochemical inhibition assay (SAMDI mass spectrometry)
How it was run: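 Enzyme (12.5 nM final) pre-incubated with serially diluted compounds (2% DMSO final) in 50 mM Tris pH 8.0 with Tween20, gelatin and 1 mM DTT. Reaction started with 1 μM peptide substrate and 1 μM acetyl-CoA, run 90 min at 25 °C, quenched with 0.5% formic acid, read by SAMDI-TOF mass spectrometry; IC50 derived.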

KAT-5 = KAT-5 (Homo sapiens (Human), UniProt Q92993); assay: KAT-5 biochemical inhibition assay (SAMDI mass spectrometry)
How it was run: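 KAT-5 at 9 nM final was preincubated with serially diluted compound (2% DMSO) in 50 mM Tris pH 8.0 with 1 mM DTT. Reaction ran with 1 μM peptide substrate and 0.5 μM acetyl-CoA for 90 min at 25° C, was quenched with 0.5% formic acid, and was read by SAMDI-TOF mass spectrometry.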

KAT-8 = KAT-8 (Homo sapiens (Human), UniProt Q9H7Z6); assay: KAT-8 biochemical inhibition assay (SAMDI mass spectrometry)
How it was run: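 Compounds in 2% DMSO pre-incubated with 12.5 nM enzyme in 50 mM Tris pH 8.0 with Tween20, gelatin and 1 mM DTT. Then 1 μM peptide and 5 μM acetyl-CoA were added, 90 min at 25 °C; formic acid stop and SAMDI-TOF mass spectrometry for IC50.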

Chain of KAT-8 (Q9H7Z6 other isoform, or with tags, fused parts or gaps): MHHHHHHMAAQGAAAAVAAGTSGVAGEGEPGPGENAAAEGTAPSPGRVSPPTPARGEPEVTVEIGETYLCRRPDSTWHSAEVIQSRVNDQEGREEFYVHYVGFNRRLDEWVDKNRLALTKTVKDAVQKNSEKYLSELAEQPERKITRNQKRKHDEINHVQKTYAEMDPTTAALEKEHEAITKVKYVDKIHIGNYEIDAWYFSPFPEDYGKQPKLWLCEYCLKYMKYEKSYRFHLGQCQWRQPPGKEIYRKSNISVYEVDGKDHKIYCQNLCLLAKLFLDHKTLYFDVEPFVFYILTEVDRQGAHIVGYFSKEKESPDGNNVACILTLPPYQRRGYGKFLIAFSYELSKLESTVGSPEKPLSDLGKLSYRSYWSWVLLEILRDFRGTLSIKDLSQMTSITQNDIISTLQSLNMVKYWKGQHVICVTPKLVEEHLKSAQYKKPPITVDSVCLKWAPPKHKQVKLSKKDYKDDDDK
Chain of KAT-5 (Q92993 other isoform, or with tags, fused parts or gaps): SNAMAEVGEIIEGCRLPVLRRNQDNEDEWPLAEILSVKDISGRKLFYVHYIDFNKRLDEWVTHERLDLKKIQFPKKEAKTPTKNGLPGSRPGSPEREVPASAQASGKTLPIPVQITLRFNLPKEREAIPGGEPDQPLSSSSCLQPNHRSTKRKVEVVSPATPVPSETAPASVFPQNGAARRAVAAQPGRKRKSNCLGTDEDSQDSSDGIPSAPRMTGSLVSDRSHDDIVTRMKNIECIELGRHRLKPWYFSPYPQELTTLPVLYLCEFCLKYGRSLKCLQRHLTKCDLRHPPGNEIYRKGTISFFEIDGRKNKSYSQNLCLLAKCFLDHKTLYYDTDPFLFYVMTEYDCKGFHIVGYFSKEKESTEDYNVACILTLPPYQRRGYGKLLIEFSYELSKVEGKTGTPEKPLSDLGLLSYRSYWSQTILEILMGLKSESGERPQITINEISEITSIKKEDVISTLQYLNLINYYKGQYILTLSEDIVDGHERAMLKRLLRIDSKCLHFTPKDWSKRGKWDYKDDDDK
Chain of KAT-7 (O95251 other isoform, or with tags, fused parts or gaps): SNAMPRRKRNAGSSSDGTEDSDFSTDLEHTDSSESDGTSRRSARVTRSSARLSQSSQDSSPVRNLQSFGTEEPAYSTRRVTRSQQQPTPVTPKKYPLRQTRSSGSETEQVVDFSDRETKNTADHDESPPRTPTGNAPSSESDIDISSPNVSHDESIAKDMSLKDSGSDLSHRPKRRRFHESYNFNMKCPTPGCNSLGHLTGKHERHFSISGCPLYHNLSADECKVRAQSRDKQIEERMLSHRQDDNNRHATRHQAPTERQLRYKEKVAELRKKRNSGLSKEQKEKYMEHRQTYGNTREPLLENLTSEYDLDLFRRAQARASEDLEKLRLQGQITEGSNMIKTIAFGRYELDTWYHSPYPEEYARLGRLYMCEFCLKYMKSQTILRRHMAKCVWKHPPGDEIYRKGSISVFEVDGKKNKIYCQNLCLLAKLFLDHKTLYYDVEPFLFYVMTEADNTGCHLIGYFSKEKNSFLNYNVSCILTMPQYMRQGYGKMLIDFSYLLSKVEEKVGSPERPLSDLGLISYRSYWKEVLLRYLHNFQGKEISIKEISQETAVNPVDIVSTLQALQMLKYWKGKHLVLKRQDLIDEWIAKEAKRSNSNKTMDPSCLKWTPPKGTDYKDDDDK
Chain of KAT-6A (Q92794 other isoform, or with tags, fused parts or gaps): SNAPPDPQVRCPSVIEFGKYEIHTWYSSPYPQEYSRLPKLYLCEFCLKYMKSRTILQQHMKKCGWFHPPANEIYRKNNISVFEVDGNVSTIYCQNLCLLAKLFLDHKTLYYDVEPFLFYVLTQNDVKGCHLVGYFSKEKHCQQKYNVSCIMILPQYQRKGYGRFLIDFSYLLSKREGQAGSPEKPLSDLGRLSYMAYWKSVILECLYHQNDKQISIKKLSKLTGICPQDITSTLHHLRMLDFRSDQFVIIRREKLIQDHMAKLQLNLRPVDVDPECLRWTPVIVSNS

Row | IC50 (KAT-7) | IC50 (KAT-6A) | IC50 (KAT-5) | IC50 (KAT-8) | Structure (SMILES)
1 | < 10 µM | < 10 µM | < 10 µM | 10 to 50 µM | CCNC(=O)NC1CCC(CS(=O)(=O)NNC(=O)c2cc(-c3cn(C)cn3)cc(Cl)c2F)C1 (stereo not drawn) [Compound I-286]
2 | < 10 µM | < 10 µM | < 10 µM | 10 to 50 µM | CCNC(=O)N[C@H]1CCC[C@@H](CS(=O)(=O)NNC(=O)c2cc(-c3cn(C)cn3)cc(Cl)c2F)C1 [Compound I-287]
3 | < 10 µM | 10 to 50 µM | < 10 µM | 10 to 50 µM | Cn1cnc(-c2cc(Cl)c(F)c(C(=O)NNS(=O)(=O)C[C@H]3CCC[C@@H](OCc4ccccc4)C3)c2)c1 [Compound I-290]
4 | < 10 µM | < 10 µM | < 10 µM | 10 to 50 µM | CN(C)C(=O)N(C)C1CCCC(CS(=O)(=O)NNC(=O)c2cc(-c3cn(C)cn3)cc(Cl)c2F)C1 (stereo not drawn) [Compound I-292]
5 | < 10 µM | < 10 µM | < 10 µM | 10 to 50 µM | CCC(=O)N(C)C1CCCC(CS(=O)(=O)NNC(=O)c2cc(-c3cn(C)cn3)cc(Cl)c2F)C1 (stereo not drawn) [Compound I-294]
6 | < 10 µM | < 10 µM | < 10 µM | 10 to 50 µM | CN(C(=O)OC(C)(C)C)C1CCC(CS(=O)(=O)NNC(=O)c2cc(-c3cn(C)cn3)cc(Cl)c2F)CC1 (stereo not drawn) [Compound I-296]
7 | < 10 µM | < 10 µM | < 10 µM | 10 to 50 µM | Cn1cnc(-c2cc(Cl)c(F)c(C(=O)NNS(=O)(=O)C[C@@H]3C[C@H]4CC[C@@H]3O4)c2)c1 [Compound I-299]
8 | < 10 µM | < 10 µM | < 10 µM | 10 to 50 µM | Cn1cnc(-c2cc(Cl)c(F)c(C(=O)NNS(=O)(=O)C[C@H]3CCC[C@@H](O)C3)c2)c1 [Compound I-300]
9 | < 10 µM | < 10 µM | < 10 µM | 10 to 50 µM | CC1CCCC(CS(=O)(=O)NNC(=O)c2cc(-c3cn(C)cn3)cc(Cl)c2F)C1 (stereo not drawn) [Compound I-302]
10 | < 10 µM | 10 to 50 µM | < 10 µM | 10 to 50 µM | CC1CCN(C(=O)OC(C)(C)C)CC1CS(=O)(=O)NNC(=O)c1cc(-c2cn(C)cn2)cc(Cl)c1F (stereo not drawn) [Compound I-303]
11 | < 10 µM | < 10 µM | < 10 µM | 10 to 50 µM | Cn1cnc(-c2cc(Cl)c(F)c(C(=O)NNS(=O)(=O)c3cscn3)c2)c1 [Compound I-304]

The remaining lines, values behind:

Row | Structure (SMILES) | IC50 (KAT-7) | IC50 (KAT-6A) | IC50 (KAT-5) | IC50 (KAT-8)
12 | Cn1cnc(-c2cc(Cl)c(F)c(C(=O)NNS(=O)(=O)CC3CCC(NC(=O)OC(C)(C)C)C3)c2)c1 (stereo not drawn) [Compound I-285] | < 10 µM | < 10 µM | < 10 µM | 10 to 50 µM
13 | Cn1cnc(-c2cc(Cl)c(F)c(C(=O)NNS(=O)(=O)C[C@H]3CCC[C@H](OCc4ccccc4)C3)c2)c1 [Compound I-288] | < 10 µM | < 10 µM | < 10 µM | 10 to 50 µM
14 | Cn1cnc(-c2cc(Cl)c(F)c(C(=O)NNS(=O)(=O)CC3CC4CC4C3)c2)c1 (stereo not drawn) [Compound I-289] | < 10 µM | < 10 µM | < 10 µM | 10 to 50 µM
15 | CCN(C)C(=O)NC1CCC(CS(=O)(=O)NNC(=O)c2cc(-c3cn(C)cn3)cc(Cl)c2F)C1 (stereo not drawn) [Compound I-291] | < 10 µM | 10 to 50 µM | < 10 µM | 10 to 50 µM
16 | CCNC(=O)N(C)C1CCCC(CS(=O)(=O)NNC(=O)c2cc(-c3cn(C)cn3)cc(Cl)c2F)C1 (stereo not drawn) [Compound I-293] | < 10 µM | < 10 µM | < 10 µM | 10 to 50 µM
17 | CN(C(=O)C1CCC1)C1CCCC(CS(=O)(=O)NNC(=O)c2cc(-c3cn(C)cn3)cc(Cl)c2F)C1 (stereo not drawn) [Compound I-295] | < 10 µM | < 10 µM | < 10 µM | 10 to 50 µM
18 | CNC1CCC(CS(=O)(=O)NNC(=O)c2cc(-c3cn(C)cn3)cc(Cl)c2F)CC1 (stereo not drawn) [Compound I-297] | < 10 µM | 10 to 50 µM | 10 to 50 µM | 10 to 50 µM
19 | Cn1cnc(-c2cc(Cl)c(F)c(C(=O)NNS(=O)(=O)C[C@H]3C[C@H]4CC[C@@H]3O4)c2)c1 [Compound I-298] | < 10 µM | < 10 µM | < 10 µM | 10 to 50 µM
20 | Cn1cnc(-c2cc(Cl)c(F)c(C(=O)NNS(=O)(=O)c3cccnc3)c2)c1 [Compound I-301] | < 10 µM | < 10 µM | 10 to 50 µM | 10 to 50 µM
21 | Cn1cnc(-c2ccc(F)c(C(=O)NNS(=O)(=O)C[C@H]3CCC[C@H](O)C3)c2)c1 [Compound I-305] | < 10 µM | 10 to 50 µM | 10 to 50 µM | 10 to 50 µM
